For 33 compounds, EC50 results are on record in patent US20230083973A1, “SUBSTITUTED CYCLOPROPYL-2,2'-BIP[…], ANALOGUES THEREOF, AND METHODS USING SAME” (priority 2019, published 2023).

For one experiment, the system named is HBsAg. Nature of the experiment: HBsAg assay: inhibition of HBsAg in HepG2.2.15 cells (chemiluminescence immunoassay of supernatant). The experiment is classed as cell-based, hepatitis B virus. The settings on record: Hepatitis B virus, HepG2.2.15, 144 h, read-out: sAg EC50, HepG2.2.15 cells; HBsAg in supernatant at day 6 after exposure to compound; 0.5% DMSO. The gist of the method: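 Secreted HBsAg quantified by CLIA in day-6 supernatants of HepG2.2.15 cultures given compound dilutions at 0.5% final DMSO, with one compound/medium replenishment after 2–3 days. Dose-response fits gave EC50 (50% inhibition); viability checked separately by CellTiter-Glo.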
Regarding `COc1c(Cl)ccc(C2CC2c2cnc(-c3ncccn3)nc2)c1Cl` (single isomer, unassigned) [Example 132, trans-5-(2-(2,4-Dichloro-3-methoxyphenyl)cyclopropyl)-2,2′-bipyrimidine], the EC50 worked out at 120 nM.

As to `COc1cc(C2CC2c2cnc(-c3ncccn3)nc2)cnc1OC` (single isomer, unassigned) [Example 183, trans-5-(2-(5,6-Dimethoxypyridin-3-yl)cyclopropyl)-2,2′-bipyrimidine], the EC50 came out at 910 nM.

Staying with this experiment, now noted: read-out: sAg EC50; HepG2.2.15 cells; HBsAg in supernatant at day 6 after exposure to compound; 0.5% DMSO.
Regarding `COCCCOc1cc(C2CC2c2cnc(-c3ncccn3)nc2)cc(F)c1F` (single isomer, unassigned) [Example 130, trans-5-(2-(3,4-Difluoro-5-(3-methoxypropoxy)phenyl)cyclopropyl)-2,2′-bipyrimidine], the EC50 stood at 260 nM. Turning to `COCCCOc1cc(C2CC2c2cnc(-c3ncccn3)nc2)cc(F)c1F` (single isomer, unassigned) [Example 131, trans-5-(2-(3,4-Difluoro-5-(3-methoxypropoxy)phenyl)cyclopropyl)-2,2′-bipyrimidine], the EC50 is 15 nM. Take `COc1c(Cl)ccc(C2CC2c2cnc(-c3ncccn3)nc2)c1Cl` (single isomer, unassigned) [Example 133, trans-5-(2-(2,4-Dichloro-3-methoxyphenyl)cyclopropyl)-2,2′-bipyrimidine]: the EC50 was 130 nM.

For `COCCOc1cc(C2CC2c2cnc(-c3ncccn3)nc2)cc(F)c1F` (single isomer, unassigned) [Example 134, trans-5-(2-(3,4-Difluoro-5-(2-methoxyethoxy)phenyl)cyclopropyl)-2,2′-bipyrimidine], the EC50 turned out to be 300 nM. Same read-out and setting: as for `COCCOc1cc(C2CC2c2cnc(-c3ncccn3)nc2)cc(F)c1F` (single isomer, unassigned) [Example 135, trans-5-(2-(3,4-Difluoro-5-(2-methoxyethoxy)phenyl)cyclopropyl)-2,2′-bipyrimidine], the figure is 22 nM. Regarding `Fc1cc(C2CC2c2cnc(-c3ncccn3)nc2)cc(N2CC3(CCOCC3)C2)c1F` (single isomer, unassigned) [Example 136, trans-2-(5-(2-([2,2′-Bipyrimidin]-5-yl)cyclopropyl)-2,3-difluorophenyl)-7-oxa-2-azaspiro[3.5]nonane], the EC50 was 920 nM. For the compound `Fc1cc(C2CC2c2cnc(-c3ncccn3)nc2)cc(N2CC3(CCOCC3)C2)c1F` (single isomer, unassigned) [Example 137, trans-2-(5-(2-([2,2′-Bipyrimidin]-5-yl)cyclopropyl)-2,3-difluorophenyl)-7-oxa-2-azaspiro[3.5]nonane], the EC50 was found to be 74 nM.

On to `CC1(C)CN(c2cc(C3CC3c3cnc(-c4ncccn4)nc3)cc(F)c2F)C1` (single isomer, unassigned) [Example 138, trans-5-(2-(3-(3,3-Dimethylazetidin-1-yl)-4,5-difluorophenyl)cyclopropyl)-2,2′-bipyrimidine], for which the EC50 amounted to 1000 nM. `CC1(C)CN(c2cc(C3CC3c3cnc(-c4ncccn4)nc3)cc(F)c2F)C1` (single isomer, unassigned) [Example 139, trans-5-(2-(3-(3,3-Dimethylazetidin-1-yl)-4,5-difluorophenyl)cyclopropyl)-2,2′-bipyrimidine]: the 50% effective concentration (EC50) amounted to 88 nM. The same measure, in the same setting: under `COc1cc(C2CC2c2cnc(-c3ncccn3)nc2-c2ccc3nc(C)sc3c2)ccc1F` (single isomer, unassigned) [Example 140, trans-6-(5-(2-(4-Fluoro-3-methoxyphenyl)cyclopropyl)-[2,2′-bipyrimidin]-4-yl)-2-methylbenzo[d]thiazole] stands 37000 nM. Consider `COc1cc(C2CC2c2cnc(-c3ncccn3)nc2-c2ccc3nc(C)sc3c2)ccc1F` (single isomer, unassigned) [Example 141, trans-6-(5-(2-(4-Fluoro-3-methoxyphenyl)cyclopropyl)-[2,2′-bipyrimidin]-4-yl)-2-methylbenzo[d]thiazole], for which the EC50 came out at 1200 nM. Still for that read-out and setting: as for `COc1cc(C2CC2c2cnc(-c3ncccn3)nc2-c2ccccc2)ccc1F` (single isomer, unassigned) [Example 142, trans-5-(2-(4-Fluoro-3-methoxyphenyl)cyclopropyl)-4-phenyl-2,2′-bipyrimidine], the figure is 5000 nM; as for `COc1cc(C2CC2c2cnc(-c3ncccn3)nc2-c2ccccc2)ccc1F` (single isomer, unassigned) [Example 143, trans-5-(2-(4-Fluoro-3-methoxyphenyl)cyclopropyl)-4-phenyl-2,2′-bipyrimidine], 120 nM.

As to `COc1cc(C2CC2c2cnc(-c3ncccn3)nc2N2CCCCC2)ccc1F` (single isomer, unassigned) [Example 144, trans-5-(2-(4-Fluoro-3-methoxyphenyl)cyclopropyl)-4-(piperidin-1-yl)-2,2′-bipyrimidine], the EC50 was found to be 25000 nM.

Regarding `COc1cc(C2CC2c2cnc(-c3ncccn3)nc2N2CCCCC2)ccc1F` (single isomer, unassigned) [Example 145, trans-5-(2-(4-Fluoro-3-methoxyphenyl)cyclopropyl)-4-(piperidin-1-yl)-2,2′-bipyrimidine], the EC50 is 700 nM. Still for that read-out and setting: as for `COc1cc(C2CC2c2cnc(-c3ncccn3)nc2)cc(OC)c1F` (single isomer, unassigned) [Example 146, trans-5-(2-(4-Fluoro-3,5-dimethoxyphenyl)cyclopropyl)-2,2′-bipyrimidine], the figure is 110 nM; as for `COc1cc(C2CC2c2cnc(-c3ncccn3)nc2)cc(OC)c1F` (single isomer, unassigned) [Example 147, trans-5-(2-(4-Fluoro-3,5-dimethoxyphenyl)cyclopropyl)-2,2′-bipyrimidine], 10000 nM. For the compound `COc1cc(C2CC2c2cnc(-c3ncccn3)nc2)cc(Cl)c1F` (single isomer, unassigned) [Example 148, trans-5-(2-(3-Chloro-4-fluoro-5-methoxyphenyl)cyclopropyl)-2,2′-bipyrimidine], the concentration giving a half-maximal response (EC50) was 1000 nM. Regarding `COc1cc(C2CC2c2cnc(-c3ncccn3)nc2)cc(Cl)c1F` (single isomer, unassigned) [Example 149, trans-5-(2-(3-Chloro-4-fluoro-5-methoxyphenyl)cyclopropyl)-2,2′-bipyrimidine], the EC50 is 62 nM. Same read-out and setting: under `COc1cc(C2CC2c2cnc(-c3ncccn3)nc2)cc(C)c1F` (single isomer, unassigned) [Example 150, trans-5-(2-(4-Fluoro-3-methoxy-5-methylphenyl)cyclopropyl)-2,2′-bipyrimidine] stands 1000 nM; under `COc1cc(C2CC2c2cnc(-c3ncccn3)nc2)cc(C)c1F` (single isomer, unassigned) [Example 151, trans-5-(2-(4-Fluoro-3-methoxy-5-methylphenyl)cyclopropyl)-2,2′-bipyrimidine], 81 nM; under `COCCCOc1cc(F)c(Cl)cc1C1CC1c1cnc(-c2ncccn2)nc1` (single isomer, unassigned) [Example 154, trans-5-(2-(5-Chloro-4-fluoro-2-(3-methoxypropoxy)phenyl)cyclopropyl)-2,2′-bipyrimidine], 300 nM. Regarding `COCCCOc1cc(F)c(Cl)cc1C1CC1c1cnc(-c2ncccn2)nc1` (single isomer, unassigned) [Example 155, trans-5-(2-(5-Chloro-4-fluoro-2-(3-methoxypropoxy)phenyl)cyclopropyl)-2,2′-bipyrimidine], the EC50 came to 3000 nM. For `COCCOc1cc(F)c(Cl)cc1C1CC1c1cnc(-c2ncccn2)nc1` (single isomer, unassigned) [Example 156, trans-5-(2-(5-Chloro-4-fluoro-2-(2-methoxyethoxy)phenyl)cyclopropyl)-2,2′-bipyrimidine], the EC50 was found to be 190 nM.

`COCCOc1cc(F)c(Cl)cc1C1CC1c1cnc(-c2ncccn2)nc1` (single isomer, unassigned) [Example 157, trans-5-(2-(5-Chloro-4-fluoro-2-(2-methoxyethoxy)phenyl)cyclopropyl)-2,2′-bipyrimidine]: the EC50 turned out to be 49000 nM. As for `COc1cc(C2CC2c2cnc(-c3ncccn3)nc2)c(-c2ccccc2)cc1Cl` (single isomer, unassigned) [Example 158, trans-5-(2-(5-Chloro-4-methoxy-[1,1′-biphenyl]-2-yl)cyclopropyl)-2,2′-bipyrimidine], the EC50 came out at 3000 nM. For the compound `COc1cc(C2CC2c2cnc(-c3ncccn3)nc2)c(-c2ccccc2)cc1Cl` (single isomer, unassigned) [Example 159, trans-5-(2-(5-Chloro-4-methoxy-[1,1′-biphenyl]-2-yl)cyclopropyl)-2,2′-bipyrimidine], the EC50 was 49000 nM. `Fc1cc(C2CC2c2cnc(-c3ncccn3)nc2)cc(F)c1F` (single isomer, unassigned) [Example 161, trans-5-(2-(3,4,5-Trifluorophenyl)cyclopropyl)-2,2′-bipyrimidine]: the EC50 came out at 10000 nM.

As for `Fc1cc(C2CC2c2cnc(-c3ncccn3)nc2)cc(F)c1F` (single isomer, unassigned) [Example 162, trans-5-(2-(3,4,5-Trifluorophenyl)cyclopropyl)-2,2′-bipyrimidine], the EC50 was 160 nM. Still for that read-out and setting: as for `Fc1cc(C2CC2c2cnc(-c3ncccn3)nc2)cc(-n2ccnc2)c1F` (single isomer, unassigned) [Example 181, trans-5-(2-(3,4-Difluoro-5-(1H-imidazol-1-yl)phenyl)cyclopropyl)-2,2′-bipyrimidine], the figure is 390 nM. `Fc1cc(C2CC2c2cnc(-c3ncccn3)nc2)cc(-n2ccnc2)c1F` (single isomer, unassigned) [Example 182, trans-5-(2-(3,4-Difluoro-5-(1H-imidazol-1-yl)phenyl)cyclopropyl)-2,2′-bipyrimidine]: the concentration giving a half-maximal response (EC50) turned out to be 64 nM.

What is called EC50 is the midpoint of the concentration-response curve.
